Experimental data from ChEMBL document CHEMBL1909046, “DrugMatrix in vitro pharmacology data”.

Columns and labels:
[1] = DRUGMATRIX: Glutamate, NMDA, Agonism radioligand binding (ligand: [3H] CGP-39653); format: cell membranes, Rattus norvegicus, Wistar, Cerebral cortex, Membrane; conditions: Not Active = under 50% inhibition at 10 µM
[2] = DRUGMATRIX: Phosphodiesterase PDE3 enzyme inhibition (substrate: [3H]cAMP + cAMP); format: tissue-based, Homo sapiens; conditions: platelet; Not Active = under 50% inhibition at 10 µM
[3] = DRUGMATRIX: Sigma2 radioligand binding (ligand: [3H] Ifenprodil); format: cell membranes, Rattus norvegicus, Wistar, Brain, Membrane; conditions: Not Active = under 50% inhibition at 10 µM
[4] = target: Cytochrome P450 2D6 (Homo sapiens, UniProt P10635); conditions: bti-tn-5b1-4; further: in other assays of this panel Not Active means under 50% inhibition at 10 µM
[5] = target: T1, Leukotriene C4 synthase (Cavia porcellus, UniProt A6XA80); format: tissue-based, Lung;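 further: enzyme inhibition assay of leukotriene C4 synthase, using LTA4 as the substrate; in other assays of this panel Not Active means under 50% inhibition at 10 µM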
T1 sequence (A6XA80 whole entry): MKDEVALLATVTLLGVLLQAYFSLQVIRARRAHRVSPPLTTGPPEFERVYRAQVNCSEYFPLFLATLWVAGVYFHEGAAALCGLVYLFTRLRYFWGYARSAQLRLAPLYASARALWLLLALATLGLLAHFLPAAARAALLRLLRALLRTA

[6] = target: T2, Neutrophil elastase (Homo sapiens, UniProt P08246); format: tissue-based;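 further: inhibition of neutrophil elastase enzyme activity, measured with a p-nitroanilide-linked peptide substrate; in other assays of this panel Not Active means under 50% inhibition at 10 µM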
T2 sequence (P08246 whole entry): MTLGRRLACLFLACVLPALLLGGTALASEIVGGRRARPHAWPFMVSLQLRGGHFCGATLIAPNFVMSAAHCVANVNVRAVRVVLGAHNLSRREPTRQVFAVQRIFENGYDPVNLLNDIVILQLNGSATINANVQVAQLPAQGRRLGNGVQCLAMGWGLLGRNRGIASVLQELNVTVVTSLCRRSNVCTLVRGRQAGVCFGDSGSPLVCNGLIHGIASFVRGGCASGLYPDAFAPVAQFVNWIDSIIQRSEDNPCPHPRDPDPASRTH

[7] = target: Mitogen-activated protein kinase 14 (Homo sapiens, UniProt Q16539); design: species or system Escherichia coli;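 further: inhibition of p38alpha enzyme activity in a biochemical kinase assay, with myelin basic protein serving as substrate; in other assays of this panel Not Active means under 50% inhibition at 10 µM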
Chain of Mitogen-activated protein kinase 14 (Q16539 whole entry): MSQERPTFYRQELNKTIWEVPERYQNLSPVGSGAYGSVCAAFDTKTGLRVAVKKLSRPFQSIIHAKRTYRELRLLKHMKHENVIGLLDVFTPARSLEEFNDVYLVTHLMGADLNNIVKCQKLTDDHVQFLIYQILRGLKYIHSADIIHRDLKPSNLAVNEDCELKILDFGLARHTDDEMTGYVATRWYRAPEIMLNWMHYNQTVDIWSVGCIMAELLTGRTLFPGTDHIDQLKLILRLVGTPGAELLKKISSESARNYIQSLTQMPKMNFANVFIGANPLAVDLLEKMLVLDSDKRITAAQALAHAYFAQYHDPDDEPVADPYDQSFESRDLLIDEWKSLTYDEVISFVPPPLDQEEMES

Chain of Cytochrome P450 2D6 (P10635 whole entry): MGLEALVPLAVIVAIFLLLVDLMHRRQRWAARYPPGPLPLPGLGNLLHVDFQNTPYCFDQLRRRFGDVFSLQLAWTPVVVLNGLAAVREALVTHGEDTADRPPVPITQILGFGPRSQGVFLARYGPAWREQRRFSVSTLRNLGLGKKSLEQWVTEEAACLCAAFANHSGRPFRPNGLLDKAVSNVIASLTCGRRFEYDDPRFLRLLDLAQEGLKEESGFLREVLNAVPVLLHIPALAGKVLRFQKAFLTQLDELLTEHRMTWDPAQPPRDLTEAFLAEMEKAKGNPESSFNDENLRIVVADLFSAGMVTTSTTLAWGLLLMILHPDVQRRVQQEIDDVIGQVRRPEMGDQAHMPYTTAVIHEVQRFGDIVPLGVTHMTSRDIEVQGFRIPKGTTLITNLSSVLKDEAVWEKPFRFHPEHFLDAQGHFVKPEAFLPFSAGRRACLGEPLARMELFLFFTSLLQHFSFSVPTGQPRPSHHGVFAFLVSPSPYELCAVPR

CNC1=Nc2ccc(Cl)cc2C(c2ccccc2)=[N+]([O-])C1 [CHLORDIAZEPOXIDE]
Not Active: IC50 [1] | Ki [1] | IC50 [2] | Ki [2] | IC50 [3] | Ki [3] | IC50 [4] | Ki [4] | IC50 [5] | IC50 [6] | IC50 [7]

C[C@@H]1O[C@@H](O[C@H]2C[C@@H](O)[C@]3(CO)[C@H]4[C@H](O)C[C@]5(C)[C@@H](C6=CC(=O)OC6)CC[C@]5(O)[C@@H]4CC[C@]3(O)C2)[C@H](O)[C@H](O)[C@H]1O [OUABAIN]
Not Active: IC50 [1] | Ki [1] | IC50 [2] | Ki [2] | IC50 [3] | Ki [3] | IC50 [4] | Ki [4] | IC50 [5] | IC50 [6] | IC50 [7]

Cc1cccc(C)c1NC(=O)C1CCCCN1C (stereo unspecified) [MEPIVACAINE]
Not Active: IC50 [1] | Ki [1] | IC50 [2] | Ki [2] | IC50 [3] | Ki [3] | IC50 [4] | Ki [4] | IC50 [5] | IC50 [6] | IC50 [7]

CC1=NN(c2ccccc2)C(=O)C1 [EDARAVONE]
Not Active: IC50 [1] | Ki [1] | IC50 [2] | Ki [2] | IC50 [3] | Ki [3] | IC50 [4] | Ki [4] | IC50 [5] | IC50 [6] | IC50 [7]

CC(C)C[C@H]1C(=O)N2CCC[C@H]2[C@]2(O)O[C@](NC(=O)[C@@H]3C=C4c5cccc6[nH]cc(c56)C[C@H]4N(C)C3)(C(C)C)C(=O)N12 [ERGOCRYPTINE]
Not Active: IC50 [1] | Ki [1] | IC50 [2] | Ki [2] | IC50 [3] | Ki [3] | IC50 [4] | Ki [4] | IC50 [5] | IC50 [6] | IC50 [7]

Cc1cc(O)cc(C)c1Cl [CHLOROXYLENOL]
Not Active: IC50 [1] | Ki [1] | IC50 [2] | Ki [2] | IC50 [3] | Ki [3] | IC50 [4] | Ki [4] | IC50 [5] | IC50 [6] | IC50 [7]

CCOC(=O)c1ncn2c1CN(C)C(=O)c1cc(F)ccc1-2 [FLUMAZENIL]
Not Active: IC50 [1] | Ki [1] | IC50 [2] | Ki [2] | IC50 [3] | Ki [3] | IC50 [4] | Ki [4] | IC50 [5] | IC50 [6] | IC50 [7]

COBALTOUS CHLORIDE
Not Active: IC50 [1] | Ki [1] | IC50 [2] | Ki [2] | IC50 [3] | Ki [3] | IC50 [4] | Ki [4] | IC50 [5] | Ki [5] | IC50 [6] | Ki [6] | IC50 [7] | Ki [7]

COc1ccc2c(c1OC)C(=O)O[C@@H]2[C@H]1c2c(cc3c(c2OC)OCO3)CCN1C [NOSCAPINE]
Not Active: IC50 [1] | Ki [1] | IC50 [2] | Ki [2] | IC50 [3] | Ki [3] | IC50 [4] | Ki [4] | IC50 [5] | IC50 [6] | IC50 [7]

COLISTIN
Not Active: IC50 [1] | Ki [1] | IC50 [2] | Ki [2] | IC50 [3] | Ki [3] | IC50 [4] | Ki [4] | IC50 [5] | Ki [5] | IC50 [6] | Ki [6] | IC50 [7] | Ki [7]

CCN(C(C)=O)c1cccc(-c2ccnc3c(C#N)cnn23)c1 [ZALEPLON]
Not Active: IC50 [1] | Ki [1] | IC50 [2] | Ki [2] | IC50 [3] | Ki [3] | IC50 [4] | Ki [4] | IC50 [5] | IC50 [6] | IC50 [7]

CN1C(=O)CN=C(c2ccccc2)c2cc([N+](=O)[O-])ccc21 [NIMETAZEPAM]
Not Active: IC50 [1] | Ki [1] | IC50 [2] | Ki [2] | IC50 [3] | Ki [3] | IC50 [4] | Ki [4] | IC50 [5] | IC50 [6] | IC50 [7]

ClC(Cl)(Cl)Cl [CARBON TETRACHLORIDE]
Not Active: IC50 [1] | Ki [1] | IC50 [2] | Ki [2] | IC50 [3] | Ki [3] | IC50 [4] | Ki [4] | IC50 [5] | IC50 [6] | IC50 [7]

CN(C)CCC=C1c2ccccc2CCc2ccccc21 [AMITRIPTYLINE]
Not Active: IC50 [1] | Ki [1] | IC50 [2] | Ki [2] | IC50 [3] | Ki [3] | IC50 [4] | Ki [4] | IC50 [5] | IC50 [6] | IC50 [7]

C[C@]12CC[C@H]3[C@@H](CCC4=CC(=O)CC[C@@H]43)[C@@H]1CC[C@@H]2O [NANDROLONE]
Not Active: IC50 [1] | Ki [1] | IC50 [2] | Ki [2] | IC50 [3] | Ki [3] | IC50 [4] | Ki [4] | IC50 [5] | IC50 [6] | IC50 [7]

N=C(N)c1ccc(OCCCCCOc2ccc(C(=N)N)cc2)cc1 [PENTAMIDINE]
Not Active: IC50 [1] | Ki [1] | IC50 [2] | Ki [2] | IC50 [3] | Ki [3] | IC50 [4] | Ki [4] | IC50 [5] | IC50 [6] | IC50 [7]

COc1cccc2c1C(=O)c1c(O)c3c(c(O)c1C2=O)C[C@@](O)(C(C)=O)C[C@@H]3O[C@H]1C[C@H](N)[C@H](O)[C@H](C)O1 [DAUNORUBICIN]
Not Active: IC50 [1] | Ki [1] | IC50 [2] | Ki [2] | IC50 [3] | Ki [3] | IC50 [4] | Ki [4] | IC50 [5] | IC50 [6] | IC50 [7]

CC(O)(P(=O)(O)O)P(=O)(O)O [ETIDRONIC ACID]
Not Active: IC50 [1] | Ki [1] | IC50 [2] | Ki [2] | IC50 [3] | Ki [3] | IC50 [4] | Ki [4] | IC50 [5] | IC50 [6] | IC50 [7]

CC(=O)Oc1ccccc1C(=O)O [ASPIRIN]
Not Active: IC50 [1] | Ki [1] | IC50 [2] | Ki [2] | IC50 [3] | Ki [3] | IC50 [4] | Ki [4] | IC50 [5] | IC50 [6] | IC50 [7]

O=c1[nH]c(=O)n([C@H]2C[C@H](O)[C@@H](CO)O2)cc1F [FLOXURIDINE]
Not Active: IC50 [1] | Ki [1] | IC50 [2] | Ki [2] | IC50 [3] | Ki [3] | IC50 [4] | Ki [4] | IC50 [5] | IC50 [6] | IC50 [7]
